# Article PMC7582672, “Actions of FTY720 (Fingolimod), a Sphingosine-1-Phosphate Receptor Modulator, on Delayed-Rectifier K^+ Current and Intermediate-Conductance Ca^2+-Activated K^+ Channel in Jurkat T-Lymphocytes” (Molecules, 2020)
# Molecular target: T1, intermediate-conductance Ca2+-activated K+ channel (IKCa, KCa3.1) (Homo sapiens, UniProt O15554)
# T1 construct: gene KCNN4
# Assay: cell-attached single-channel recording in Jurkat T-lymphocytes (activator)
# Format: cell-based
# T1 sequence (O15554 whole entry): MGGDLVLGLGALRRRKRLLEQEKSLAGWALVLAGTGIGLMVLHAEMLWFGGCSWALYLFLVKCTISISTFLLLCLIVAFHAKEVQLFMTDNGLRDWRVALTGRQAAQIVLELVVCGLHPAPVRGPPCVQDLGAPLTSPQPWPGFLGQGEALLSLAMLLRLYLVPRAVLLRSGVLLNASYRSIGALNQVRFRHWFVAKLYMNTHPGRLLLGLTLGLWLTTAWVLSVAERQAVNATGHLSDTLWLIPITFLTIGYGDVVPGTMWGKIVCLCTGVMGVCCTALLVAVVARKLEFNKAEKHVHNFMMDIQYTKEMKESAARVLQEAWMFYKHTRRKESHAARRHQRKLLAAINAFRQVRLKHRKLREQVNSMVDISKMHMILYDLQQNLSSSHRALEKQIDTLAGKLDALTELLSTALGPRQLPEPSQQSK
smiles,measurement,value
Oc1cc2ccccc2c2ccccc12 [9-phenanthrol],cell-attached single-channel recording in Jurkat T-lymphocytes (activator),"activity of IKCa channels, which was sensitive to block by TRAM-34 and to stimulation by 9-phenanthrol, was readily detected"
